{"source": "patent US20040009485A1", "about": "“Cellular arrays for the identification of altered gene expression” (priority 2002, published 2004)", "key": {"[1]": {"tested_on": "uhpT-luxCDABE gene fusion (E. coli strain DPD3228)", "assay": "Verification of uhpT-lux upregulation by limonene", "type": "cell-based", "settings": "late response, maximal at highest conc, also detected at 40% or 20% of saturating amounts (FIG. 10)", "procedure": "E. coli strain DPD3228 is identical to lux-a.pk034.b9 the strain containing the uhpT-luxCDABE gene fusion. This strain was grown overnight at 37° C. in LB medium containing 100 μg/ml ampicillin and diluted the following day into LB medium and grown to log phase at 37° C. 20 μl aliquots of this culture were added to 80 μl of LB medium saturated with limonene, to 80 μl of a series of two fold dilutions into LB medium of LB saturated with limonene, and to 80 μl of LB medium. Light production was measured in a Luminoskan Ascent (Labsystems) microplate luminometer at 37° C. […] Similar to the initial LuxArray observations, a late response to the presence of limonene was observed. This response was maximal at the highest concentration of limonene tested, but was also detected when limonene was present at 40% or 20% of saturating amounts in LB medium."}, "[2]": {"tested_on": "luxCDABE gene fusions of the Lux-A Collection", "assay": "Induction of Lux-A Collection gene fusions by MMC (and yebF fusion by nalidixic acid)", "type": "cell-based, E. coli", "settings": "light-producing transformants with inverted insert (20% of them)", "procedure": "The Lux-A Collection of reporter gene fusions was examined for presence of fusions to the genes in Table 11. […] Each of these was tested for induction by MMC at several doses over a time course of 100 minutes.\nAs expected, the expression of the known SOS genes was elevated; however the expression of several was elevated less than 2-fold (Table 12) and as such were within a large group of 792 genes the expression of which was elevated by 20% or more. Most of these are likely due to artifacts in the array data rather than to actual biologically relevant responses. To test if strains carrying luxCDABE gene fusions would yield the expected positive result, the three gene fusions that were available in the Lux-A Collection of reporter gene fusions were tested for mitomycin C responses.\nIn this case, a divergent promoter to the purT gene was present in the chromosomal fragment and strains containing the backward yebF fusion produced light. […] […] The orientation of the inserted segment to yield a fusion of yebF to the luxCDABE operon was confirmed by DNA sequence analysis."}, "[3]": {"tested_on": "Luxarray 0.5 reporter clones", "assay": "Luxarray 0.5 solid phase perturbation with nalidixic acid (luminometer)", "type": "cell-based, E. coli", "settings": "1 and 5 μg/ml plates, 2 hrs", "procedure": "A solid phase assay system consisting of reporter clones growing in the presence or absence of a perturbation, biological, environmental was developed. This was accomplished by growing the reporters on a porous membrane (Biodyne B, Nunc) seated on top of solid growth media in a culture dish (OmniTray, Nunc). Luminescence was measured either by a luminometer or by creating an image of the entire culture and quantitating the pixel density. Effects of perturbants can be determined by comparison of luminescence generated by treated and control cultures. Growth on the surface of the membrane allows the reporter assay to be moved between conditions as required. […]\nMembranes were sterilized with UV illumination for 10 min then placed in contact with prewarmed media in a culture dish. […] Luminescence data was collected for each spot for 40 cycles of 20 min duration (overnight). […] Without exception, the signal strength measured corroborated the data obtained in liquid culture. […]\nNext the system was evaluated for its ability to determine responses to perturbation, in this case, DNA damage caused by nalidixic acid Parental clone and two nonresponding reporters, osmY, and lacZYA, and three DNA damage responsive reporters, uvrA, recA, dinG, were chosen. […] The membranes were moved to new, pre-warmed plates containing varying amounts of nalidixic acid and light readings collected with an ML3000 luminometer. […]"}, "[4]": {"tested_on": "luxCDABE gene fusions in lexA+ host", "assay": "Mitomycin C and nalidixic acid responses in lexA+ host", "type": "cell-based, E. coli", "settings": "for NA Ratio, 2 hr 10 ug/ml: lexA+ host", "procedure": "(§1) In addition, the effect of a lexAind mutation was tested to determine if any of these were part of the SOS regulon. The expectation is that SOS regulon member will be induced by both nalidixic acid and mitomycin C in a manner that is dependent on lexA function (Walker, G. C., (1996) Escherichia coli and Salmonella: Cellular and Molecular Biology ASM Press). […] This is consistent with the observation of upregulation of the b1728 mRNA transcript upon mitomycin C treatment in a LexA dependent fashion (Fernández de Henestrosa et al. (2000). Mol. Microbiol. 35:1560-1572). Likewise, two Gene fusions, those to oraA and yigN were identified is new members of the SOS regulon (Table 16). […] Negative, non-DNA damage responsive gene fusions were also included (Table 16)."}, "[5]": {"tested_on": "luxCDABE gene fusions in lexAind host", "assay": "Mitomycin C and nalidixic acid responses in lexAind host", "type": "cell-based, E. coli", "settings": "for NA Ratio, 2 hr 10 ug/ml: lexAind host", "procedure": "as §1"}, "[6]": {"settings": "1pxA 1pxB rnhB dnaE fusion (lux-a.pk061.c3)"}, "[7]": {"settings": "dinG ybiB fusion (lux-a.pk0024.f5)"}, "[8]": {"settings": "lacZ fusion (65.d4), negative control"}, "[9]": {"settings": "yciG fusion (lux-a.pk006.b4), negative control"}}, "data": [{"smiles": "C=C(C)[C@H]1CC=C(C)CC1", "note": "[limonene]", "values": [{"measurement": "upregulation of bioluminescence of uhpT-luxCDABE strain", "setting": "[1]", "value": "upregulation of bioluminescence from this strain by limonene was confirmed"}]}, {"smiles": "CCn1cc(C(=O)O)c(=O)c2ccc(C)nc21", "note": "[Nalidixic acid, nalidixic acid]", "values": [{"measurement": "induction of bioluminescence of inverted yebF-luxCDABE fusion", "setting": "[2]", "value": "highly induced"}, {"measurement": "bioluminescence on solid medium", "setting": "[3]; SOS regulon reporters uvrA, recA, dinG", "value": "increased bioluminescence"}, {"measurement": "bioluminescence on solid medium", "setting": "[3]; non-DNA damage responsive fusions osmY and lacZYA", "value": "unaffected"}, {"measurement": "NA Ratio, 2 hr 10 ug/ml", "setting": "[4]; [6]", "value": 2.87}, {"measurement": "NA Ratio, 2 hr 10 ug/ml", "setting": "[4]; b1728 fusion (lux-a.pk033.c5)", "value": 5.17}, {"measurement": "NA Ratio, 2 hr 10 ug/ml", "setting": "[4]; b1936 fusion (lux-a.pk0019.g1)", "value": 3.25}, {"measurement": "NA Ratio, 2 hr 10 ug/ml", "setting": "[4]; [7]", "value": 4.03}, {"measurement": "NA Ratio, 2 hr 10 ug/ml", "setting": "[4]; fusion (lux-a.pk0015.d6)", "value": 3.22}, {"measurement": "NA Ratio, 2 hr 10 ug/ml", "setting": "[4]; [8]", "value": 0.81}, {"measurement": "induction of b1728 promoter-luxCDABE fusion", "setting": "[4]; lexA+ host (FIG. 9)", "value": "clearly induced"}, {"measurement": "NA Ratio, 2 hr 10 ug/ml", "setting": "[4]; oraA fusion (lux-a.pk058.f5)", "value": 11.06}, {"measurement": "NA Ratio, 2 hr 10 ug/ml", "setting": "[4]; yaaF fusion (lux-a.pk031.e7)", "value": 1.53}, {"measurement": "NA Ratio, 2 hr 10 ug/ml", "setting": "[4]; [9]", "value": 0.32}, {"measurement": "NA Ratio, 2 hr 10 ug/ml", "setting": "[4]; yigN fusion (lux-a.pk046.f11)", "value": 5.74}, {"measurement": "NA Ratio, 2 hr 10 ug/ml", "setting": "[5]; [6]", "value": 2.39}, {"measurement": "NA Ratio, 2 hr 10 ug/ml", "setting": "[5]; b1728 fusion (lux-a.pk033.c5)", "value": 0.40}, {"measurement": "NA Ratio, 2 hr 10 ug/ml", "setting": "[5]; b1936 fusion (lux-a.pk0019.g1)", "value": 1.55}, {"measurement": "NA Ratio, 2 hr 10 ug/ml", "setting": "[5]; [7]", "value": 0.97}, {"measurement": "NA Ratio, 2 hr 10 ug/ml", "setting": "[5]; fusion (lux-a.pk0015.d6)", "value": 2.29}, {"measurement": "NA Ratio, 2 hr 10 ug/ml", "setting": "[5]; [8]", "value": 1.05}, {"measurement": "induction of b1728 promoter-luxCDABE fusion", "setting": "[5]; lexAind host strain (FIG. 9)", "value": "not induced"}, {"measurement": "NA Ratio, 2 hr 10 ug/ml", "setting": "[5]; oraA fusion (lux-a.pk058.f5)", "value": 1.06}, {"measurement": "NA Ratio, 2 hr 10 ug/ml", "setting": "[5]; yaaF fusion (lux-a.pk031.e7)", "value": 1.19}, {"measurement": "NA Ratio, 2 hr 10 ug/ml", "setting": "[5]; [9]", "value": 0.67}, {"measurement": "NA Ratio, 2 hr 10 ug/ml", "setting": "[5]; yigN fusion (lux-a.pk046.f11)", "value": 0.59}]}]}
